Measured values published in patent US20250213594A1 (priority 2023, published 2025).

How the values were obtained:
[1] = format: in vivo, human; details: 1 mg QD oral 28 days, n = 10
Description: The study in the present disclosure was conducted in accordance with Therapeutic Goods Administration and Human Research Ethics Committee guidelines. The study was conducted at the Phase 1 Unit of Nucleus Network Pty Ltd in Brisbane, Australia from October 2021 to March 2022. The entire study was conducted in accordance with the provisions of the Declaration of Helsinki and Good Clinical Practice guidelines, and the protocol was registered at www.clinicaltrials.gov (NCT04945226; registration date: Jun. 30, 2021). Healthy men aged 18 to 55 years with a body mass index (BMI) of 18 to 32 kg/m^2 participated in this study. Potential subjects completed a signed informed consent form and were subjected to screening prior to the study. A total of 40 healthy, non-smoking adult men were included in the study across three cohorts (FIG. 1).
Each subject was followed up until day 43. In contrast, cohort 2 was divided into two groups.
Cohort 2 was divided into two groups. […]
The clinical status and vital signs of the subjects were evaluated before and after participation in the study to investigate adverse effects. Hematological parameters such as white blood cell, red blood cell, hemoglobin, hematocrit, and platelet counts were analyzed. Adverse effects (AEs) were recorded in terms of symptoms and signs, duration, intensity, relationship to study drug, action taken, outcome, and seriousness. […]

[2] = 1 mg finasteride tablets, previous clinical studies; cited from earlier work
DHT = assay: Phase 1 clinical study: plasma DHT as pharmacodynamic marker; format: in vivo, human
[3] = male, human, in vivo, po, 1 mg
Description: (§1) A total of 40 non-smoking, healthy adult males were recruited for this study. Subjects who passed the screening process and were deemed eligible for the study were assigned to three groups. […] Each subject was followed up until day 43. In contrast, cohort 2 was divided into two groups. […] The subjects returned to the hospital according to a pre-determined schedule for 43 or 35 days and were assessed for tolerability, PK, and PD. […] In this study, the plasma drug concentration was analyzed on day 28 to investigate the comparative effect.
(§2) Whole blood was collected and centrifuged to obtain plasma. […] Maximum plasma concentration (Cmax), time to reach Cmax (Tmax), areas under the curve for 24 and 672 hours after dosing (AUC0-24, and AUC0-672), areas under the curve from time 0 to the last quantified concentration and to infinity (AUC0-t, and AUC0-inf), total plasma clearance, apparent total volume of distribution based on steady state or terminal phase, and elimination half-life were assessed.
(§3) PK analysis was based on a non-compartmental analysis approach and was performed in the PK population (patients who received at least one dose and had evaluable PK data). PK parameters were calculated using plasma concentrations and actual blood sampling times using Phoenix WinNonlin v. 8.3 (Certara, Princeton, NJ, USA) and summarized.

[4] = set-up: species or system human; details: model estimate
Description: PK and PD modeling were performed to determine the therapeutic dose in AGA. A two-compartment PK model using observed clinical study data was adopted. […] The effective dose for additional clinical studies was estimated using established PK/PD models. All PK/PD modeling and simulations were performed using Phoenix WinNonlin, v.8.3.

clinical = details: male, human, in vivo, po
Description: as §1, §2, §3

## CC(C)(C)NC(=O)[C@H]1CC[C@H]2[C@@H]3CC[C@H]4NC(=O)C=C[C@]4(C)[C@H]3CC[C@]12C [Finasteride]
[1]
  COVID-19: 0 n (%)
[2]
  bioavailability: about 65%
DHT; 1 mg oral QD 28 days
  baseline-corrected median DHT values (%) at all time points: −74.04 to 3.58%
DHT; all concentrations of IVL3001, oral 1 mg tablets
  effect on DHT: inhibitory effect
[3]
  mean elimination half-life (t1/2el): 6.9 h
[4]
  tvCL2 (clearance between central compartment and peripheral compartment): 18.9 L/h
  tvCL (clearance from central compartment): 18.4 L/h
clinical; 1 mg, mean elimination half-life (t1/2el)
  half-life: 6.4 h
clinical; in vivo mean half-life
  half-life: ~6.4 h
